Results as given in US9695155B2, “Herbicidal substituted pyrimidinyloxy benzene compounds” (E. I. DU PONT DE NEMOURS AND COMPANY, priority 2013, dated 2017).

Columns and labels:
rice = experiment: Test C flooded paddy test; type: in vivo, Oryza sativa; conditions: Flood, scale 0 to 100 (0 no effect, 100 complete control), 13 to 15 days
How it was run: (§1)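 Ratings were visual and made relative to untreated controls after 13 to 15 greenhouse days.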

ducksalad = experiment: Test C flooded paddy test; type: in vivo, Heteranthera limosa; conditions: Flood, scale 0 to 100 (0 no effect, 100 complete control), 13 to 15 days
How it was run: as §1

barnyardgrass = experiment: Test C flooded paddy test; type: in vivo, Echinochloa crus-galli; conditions: Flood, scale 0 to 100 (0 no effect, 100 complete control), 13 to 15 days
How it was run: as §1

lambsquarters = experiment: Test E preemergence; type: in vivo, Chenopodium album; conditions: for Lambsquarters plant response rating: scale 0 to 100 (0 no effect, 100 complete control); for Plant response rating, Lambsquarters: scale 0 to 100, 0 no effect, 100 complete control
How it was run: (§2)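 Compound in a non-phytotoxic solvent mixture with surfactant was applied preemergence to seeds in silt loam soil, or postemergence to plants 2 to 18 cm tall grown in peat-based potting medium. Plants were kept in a greenhouse for 14 to 21 days, then rated visually against untreated controls on a 0 (no effect) to 100 (complete control) scale.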

wild poinsettia = experiment: Test E preemergence; type: in vivo, Euphorbia heterophylla; conditions: for Poinsettia, Wild plant response rating: scale 0 to 100 (0 no effect, 100 complete control); for Plant response rating, Poinsettia, Wild: scale 0 to 100, 0 no effect, 100 complete control
How it was run: as §2

waterhemp = experiment: Test E preemergence; type: in vivo, Amaranthus rudis; conditions: for Waterhemp plant response rating: scale 0 to 100 (0 no effect, 100 complete control); for Plant response rating, Waterhemp: scale 0 to 100, 0 no effect, 100 complete control
How it was run: as §2

Brazilian crabgrass = experiment: Test E preemergence; type: in vivo, Digitaria horizontalis; conditions: for Crabgrass, Brazil plant response rating: scale 0 to 100 (0 no effect, 100 complete control); for Plant response rating, Crabgrass, Brazil: scale 0 to 100, 0 no effect, 100 complete control
How it was run: as §2

goosegrass = experiment: Test E preemergence; type: in vivo, Eleusine indica; conditions: for Goosegrass plant response rating: scale 0 to 100 (0 no effect, 100 complete control); for Plant response rating, Goosegrass: scale 0 to 100, 0 no effect, 100 complete control
How it was run: as §2

field bindweed = experiment: Test E preemergence; type: in vivo, Convolvulus arvensis; conditions: for Field Bindweed plant response rating: scale 0 to 100 (0 no effect, 100 complete control); for Plant response rating, Field Bindweed: scale 0 to 100, 0 no effect, 100 complete control
How it was run: as §2

kochia = experiment: Test E preemergence; type: in vivo, Kochia scoparia; conditions: for Kochia plant response rating: scale 0 to 100 (0 no effect, 100 complete control); for Plant response rating, Kochia: scale 0 to 100, 0 no effect, 100 complete control
How it was run: as §2

yellow nutsedge = experiment: Test E preemergence; type: in vivo, Cyperus esculentus; conditions: for Nutsedge, Yellow plant response rating: scale 0 to 100 (0 no effect, 100 complete control); for Plant response rating, Nutsedge, Yellow: scale 0 to 100, 0 no effect, 100 complete control
How it was run: as §2

hairy beggarticks = experiment: Test E preemergence; type: in vivo, Bidens pilosa; conditions: for Beggarticks plant response rating: scale 0 to 100 (0 no effect, 100 complete control); for Plant response rating, Beggarticks: scale 0 to 100, 0 no effect, 100 complete control
How it was run: as §2

FC(F)c1cccc(Oc2ncc(Cl)cn2)c1-n1cc(Br)cn1 [Compound 194, 2-[2-(4-bromo-1H-pyrazol-1-yl)-3-(difluoromethyl)phenoxy]-5-chloropyrimidine]
98: Waterhemp plant response rating (waterhemp; 31 g ai/ha) | Crabgrass, Brazil plant response rating (Brazilian crabgrass; 62 g ai/ha)
35: Kochia plant response rating (kochia; 62 g ai/ha)
20: Nutsedge, Yellow plant response rating (yellow nutsedge; 62 g ai/ha)
90: Plant response rating, Ducksalad (ducksalad; 125 g ai/ha)
10: Plant response rating, Rice (rice; 31 g ai/ha) | Plant response rating, Rice (rice; 62 g ai/ha) | Plant response rating, Rice (rice; 125 g ai/ha) | Plant response rating, Rice (rice; 250 g ai/ha) | Poinsettia, Wild plant response rating (wild poinsettia; 31 g ai/ha)
80: Plant response rating, Ducksalad (ducksalad; 62 g ai/ha) | Lambsquarters plant response rating (lambsquarters; 31 g ai/ha)
40: Goosegrass plant response rating (goosegrass; 31 g ai/ha) | Field Bindweed plant response rating (field bindweed; 62 g ai/ha)
0: Plant response rating, Barnyardgrass (barnyardgrass; 31 g ai/ha) | Plant response rating, Barnyardgrass (barnyardgrass; 62 g ai/ha) | Plant response rating, Barnyardgrass (barnyardgrass; 125 g ai/ha) | Plant response rating, Barnyardgrass (barnyardgrass; 250 g ai/ha) | Poinsettia, Wild plant response rating (wild poinsettia; 62 g ai/ha) | Field Bindweed plant response rating (field bindweed; 31 g ai/ha) | Nutsedge, Yellow plant response rating (yellow nutsedge; 31 g ai/ha) | Beggarticks plant response rating (hairy beggarticks; 31 g ai/ha, preemergence) | Beggarticks plant response rating (hairy beggarticks; 62 g ai/ha, preemergence)
75: Goosegrass plant response rating (goosegrass; 62 g ai/ha)
65: Plant response rating, Ducksalad (ducksalad; 31 g ai/ha) | Crabgrass, Brazil plant response rating (Brazilian crabgrass; 31 g ai/ha)
5: Kochia plant response rating (kochia; 31 g ai/ha)
100: Plant response rating, Ducksalad (ducksalad; 250 g ai/ha) | Lambsquarters plant response rating (lambsquarters; 62 g ai/ha) | Waterhemp plant response rating (waterhemp; 62 g ai/ha)

FC(F)(F)c1cnn(-c2ccccc2Oc2ncc(Br)cn2)c1 [Compound 18, 5-bromo-2-[2-[4-(trifluoromethyl)-1H-pyrazol-1-yl]phenoxy]pyrimidine]
85: Plant response rating, Ducksalad (ducksalad; 125 g ai/ha)
50: Plant response rating, Poinsettia, Wild (wild poinsettia; 250 g ai/ha)
95: Crabgrass, Brazil plant response rating (Brazilian crabgrass; 31 g ai/ha)
0: Plant response rating, Rice (rice; 31 g ai/ha) | Plant response rating, Rice (rice; 62 g ai/ha) | Plant response rating, Rice (rice; 125 g ai/ha) | Plant response rating, Barnyardgrass (barnyardgrass; 31 g ai/ha) | Plant response rating, Barnyardgrass (barnyardgrass; 62 g ai/ha) | Poinsettia, Wild plant response rating (wild poinsettia; 16 g ai/ha) | Poinsettia, Wild plant response rating (wild poinsettia; 31 g ai/ha) | Poinsettia, Wild plant response rating (wild poinsettia; 62 g ai/ha) | Plant response rating, Poinsettia, Wild (wild poinsettia; 125 g ai/ha) | Crabgrass, Brazil plant response rating (Brazilian crabgrass; 16 g ai/ha) | Goosegrass plant response rating (goosegrass; 16 g ai/ha) | Goosegrass plant response rating (goosegrass; 31 g ai/ha) | Field Bindweed plant response rating (field bindweed; 16 g ai/ha) | Field Bindweed plant response rating (field bindweed; 31 g ai/ha) | Kochia plant response rating (kochia; 16 g ai/ha) | Kochia plant response rating (kochia; 31 g ai/ha) | Nutsedge, Yellow plant response rating (yellow nutsedge; 16 g ai/ha) | Nutsedge, Yellow plant response rating (yellow nutsedge; 31 g ai/ha) | Nutsedge, Yellow plant response rating (yellow nutsedge; 62 g ai/ha) | Plant response rating, Nutsedge, Yellow (yellow nutsedge; 125 g ai/ha) | Beggarticks plant response rating (hairy beggarticks; 16 g ai/ha, preemergence) | Beggarticks plant response rating (hairy beggarticks; 31 g ai/ha, preemergence) | Plant response rating, Beggarticks (hairy beggarticks; Preemergence, 62 g ai/ha) | Plant response rating, Beggarticks (hairy beggarticks; preemergence, 125 g ai/ha) | Plant response rating, Beggarticks (hairy beggarticks; preemergence, 250 g ai/ha)
10: Plant response rating, Rice (rice; 250 g ai/ha) | Plant response rating, Barnyardgrass (barnyardgrass; 125 g ai/ha) | Plant response rating, Nutsedge, Yellow (yellow nutsedge; 250 g ai/ha)
40: Plant response rating, Field Bindweed (field bindweed; 125 g ai/ha) | Plant response rating, Field Bindweed (field bindweed; 250 g ai/ha)
80: Plant response rating, Ducksalad (ducksalad; 31 g ai/ha) | Plant response rating, Ducksalad (ducksalad; 62 g ai/ha) | Lambsquarters plant response rating (lambsquarters; 16 g ai/ha) | Kochia plant response rating (kochia; 62 g ai/ha)
30: Goosegrass plant response rating (goosegrass; 62 g ai/ha) | Field Bindweed plant response rating (field bindweed; 62 g ai/ha)
98: Lambsquarters plant response rating (lambsquarters; 62 g ai/ha) | Plant response rating, Lambsquarters (lambsquarters; 125 g ai/ha) | Plant response rating, Lambsquarters (lambsquarters; 250 g ai/ha) | Crabgrass, Brazil plant response rating (Brazilian crabgrass; 62 g ai/ha) | Plant response rating, Goosegrass (goosegrass; 250 g ai/ha)
90: Plant response rating, Ducksalad (ducksalad; 250 g ai/ha) | Lambsquarters plant response rating (lambsquarters; 31 g ai/ha) | Plant response rating, Goosegrass (goosegrass; 125 g ai/ha)
100: Waterhemp plant response rating (waterhemp; 16 g ai/ha) | Waterhemp plant response rating (waterhemp; 31 g ai/ha) | Waterhemp plant response rating (waterhemp; 62 g ai/ha) | Plant response rating, Waterhemp (waterhemp; 125 g ai/ha) | Plant response rating, Waterhemp (waterhemp; 250 g ai/ha) | Plant response rating, Crabgrass, Brazil (Brazilian crabgrass; 125 g ai/ha) | Plant response rating, Crabgrass, Brazil (Brazilian crabgrass; 250 g ai/ha) | Plant response rating, Kochia (kochia; 125 g ai/ha) | Plant response rating, Kochia (kochia; 250 g ai/ha)
20: Plant response rating, Barnyardgrass (barnyardgrass; 250 g ai/ha)
